Laboratory results published in US20200199097A1, “POMALIDOMIDE DERIVATIVE AND PREPARATION METHOD THEREFOR” (NANJING NORATECH PARMACEUTICALS CO., LTD, priority 2017, published 2020).
Converted amounts (≈) assume the structure as drawn. Counter-ions that a name gives are not always drawn. Like-named read-outs stand apart in the source and are kept apart here.

Legend:
[1] = Determination of solubility in water at room temperature by HPLC; type: physicochemical; conditions: saturated solubility not determined; for solubility: thermodynamic from solid, read-out: Minimum solubility in water at room temperature
Procedure: 1 mg of compound 1 was mixed with 1 mL of water, stirred at room temperature, and completely dissolved, and the supernatant was taken as a test sample solution.
50 mg of the hydrochloride or tromethamine salt of the compound was mixed with 150 μl of water, stirred at room temperature, and completely dissolved, and the supernatant was taken as a test sample solution.
In this test, the saturated solubility of the sample is not determined, but an appropriate amount of the sample is selected to determine the solubility of the sample. […] However, the solubility of pomalidomide in water is about 0.01 mg/ml, which is much lower than the solubility of the compound of the present invention or the salt thereof.

[2] = Determination of stability under different environmental conditions; type: physicochemical
Procedure: An appropriate amount of the sample was independently placed under different environmental conditions, and the percentage of the sample at day 0, 5, 10 or 30 was determined to evaluate the stability of the sample.

[3] = cited from earlier work

CC(C)[C@H](N)C(=O)OCN1C(=O)CCC(N2C(=O)c3cccc(N)c3C2=O)C1=O (some centres unmarked) [Compound 1]
Minimum solubility in water at room temperature [1]: 1 mg/mL

Nc1cccc2c1C(=O)N(C1CCC(=O)N(COP(=O)(O)O)C1=O)C2=O (centres unmarked) [Ditromethamine salt of compound 11]
solubility [1]: > 300 mg/mL | percentage of the sample ([2]; Day 0): 99.9% | percentage of the sample ([2]; Day 5/40° C./60% RH/Dark): 92.8% | percentage of the sample ([2]; Day 5/60° C./75% RH/Dark): 15.6% | percentage of the sample ([2]; Day 5/Light): 99.5% | percentage of the sample ([2]; Day 5/RT/75% RH/Dark): 79.8% | percentage of the sample ([2]; Day 5/RT/92.5% RH/Dark): 78.4%

CC(C)[C@H](N)C(=O)OCN1C(=O)CCC(N2C(=O)c3cccc(N)c3C2=O)C1=O (some centres unmarked) [Hydrochloride salt of compound 1]
Minimum solubility in water at room temperature [1]: >300 mg/mL | percentage of the sample ([2]; Day 0): 97.1% | percentage of the sample ([2]; Day 10/40° C./60% RH/Dark): 96.9% | percentage of the sample ([2]; Day 10/60° C./75% RH/Dark): 96.4% | percentage of the sample ([2]; Day 10/Light): 96.7% | percentage of the sample ([2]; Day 10/RT/75% RH/Dark): 96.8% | percentage of the sample ([2]; Day 10/RT/92.5% RH/Dark): 95.5% | percentage of the sample ([2]; Day 30/40° C./60% RH/Dark): 95.1% | percentage of the sample ([2]; Day 30/60° C./75% RH/Dark): 94.7% | percentage of the sample ([2]; Day 30/Light): 95.0% | percentage of the sample ([2]; Day 30/RT/75% RH/Dark): 96.1% | percentage of the sample ([2]; Day 30/RT/92.5% RH/Dark): 93.3%

NCC(=O)OCN1C(=O)CCC(N2C(=O)c3cccc(N)c3C2=O)C1=O (centres unmarked) [Hydrochloride salt of compound 2]
solubility [1]: > 300 mg/mL | percentage of the sample ([2]; Day 0): 96.1% | percentage of the sample ([2]; Day 10/40° C./60% RH/Dark): 43.5% | percentage of the sample ([2]; Day 10/60° C./75% RH/Dark): 13.3% | percentage of the sample ([2]; Day 10/RT/92.5% RH/Dark): 93.3%

C[C@H](N)C(=O)OCN1C(=O)CCC(N2C(=O)c3cccc(N)c3C2=O)C1=O (some centres unmarked) [Hydrochloride salt of compound 3]
solubility [1]: > 300 mg/mL

CC(C)C[C@H](N)C(=O)OCN1C(=O)CCC(N2C(=O)c3cccc(N)c3C2=O)C1=O (some centres unmarked) [Hydrochloride salt of compound 4]
solubility [1]: > 300 mg/mL

CC[C@H](C)[C@H](N)C(=O)OCN1C(=O)CCC(N2C(=O)c3cccc(N)c3C2=O)C1=O (some centres unmarked) [Hydrochloride salt of compound 5]
solubility [1]: > 300 mg/mL

Nc1cccc2c1C(=O)N(C1CCC(=O)N(COC(=O)[C@@H]3CCCN3)C1=O)C2=O (some centres unmarked) [Hydrochloride salt of compound 6]
solubility [1]: > 300 mg/mL

Nc1cccc2c1C(=O)N(C1CCC(=O)N(COC(=O)[C@@H](N)Cc3ccccc3)C1=O)C2=O (some centres unmarked) [Hydrochloride salt of compound 7]
solubility [1]: > 300 mg/mL

Nc1cccc2c1C(=O)N(C1CCC(=O)NC1=O)C2=O (centres unmarked) [Pomalidomide]
solubility ([3]; 0.1 mol/L hydrochloric acid): 0.0189 mg/mL (≈ 69.2 µM) | solubility ([3]; acetate buffer (pH 4.5)): 0.0187 mg/mL (≈ 68.4 µM) | solubility ([3]; phosphate buffer (pH 6.8)): 0.017 mg/mL (≈ 62.2 µM) | solubility ([3]; purified water): 0.0178 mg/mL (≈ 65.1 µM) | solubility of pomalidomide in water ([3]; water): about 0.01 mg/ml
